# Like-named read-outs stand apart in the source and are kept apart here.
# Key:
# Assay type in all cases: in vivo
# [1] = system: large crabgrass (Digitaria sanguinalis); test: Test A pre-/postemergence plant response; conditions: Digitaria sanguinalis, 240 h, read-out: Plant response rating, Crabgrass, Large; for pest or weed control at 125 g/ha: 125 g ai/ha; for pest or weed control at 500 g/ha: 500 g ai/ha, approx. ten days
# Method in brief: (§1)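 Injury was scored visually after roughly ten days against untreated controls, 0 = no effect, 100 = complete control. Test chemicals in a surfactant-containing non-phytotoxic solvent were sprayed either onto soil preemergence or onto one- to two-leaf, 2–10 cm plants postemergence.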
# [2] = system: barnyardgrass (Echinochloa crus-galli); test: Test A pre-/postemergence plant response; conditions: Echinochloa crus-galli, 240 h, read-out: Plant response rating, Barnyardgrass; for pest or weed control at 125 g/ha: 125 g ai/ha; for pest or weed control at 500 g/ha: 500 g ai/ha, approx. ten days
# Method in brief: as §1
# [3] = system: wheat (Triticum aestivum); test: Test A pre-/postemergence plant response; conditions: Triticum aestivum, 240 h, read-out: Plant response rating, Wheat; for plant injury at 125 g/ha: 125 g ai/ha; for plant injury at 500 g/ha: 500 g ai/ha, approx. ten days
# Method in brief: as §1
# [4] = system: morningglory (Ipomoea spp.); test: Test A pre-/postemergence plant response; conditions: Ipomoea, 240 h, read-out: Plant response rating, Morningglory; for pest or weed control at 125 g/ha: 125 g ai/ha; for pest or weed control at 500 g/ha: 500 g ai/ha, approx. ten days
# Method in brief: as §1
# [5] = system: giant foxtail (Setaria faberii); test: Test A pre-/postemergence plant response; conditions: Setaria faberi, 240 h, read-out: Plant response rating, Foxtail, Giant; for pest or weed control at 125 g/ha: 125 g ai/ha; for pest or weed control at 500 g/ha: 500 g ai/ha, approx. ten days
# Method in brief: as §1
# [6] = system: velvetleaf (Abutilon theophrasti); test: Test A pre-/postemergence plant response; conditions: Abutilon theophrasti, 240 h, read-out: Plant response rating, Velvetleaf; for pest or weed control at 125 g/ha: 125 g ai/ha; for pest or weed control at 500 g/ha: 500 g ai/ha, approx. ten days
# Method in brief: as §1
# [7] = system: pigweed (Amaranthus retroflexus); test: Test A pre-/postemergence plant response; conditions: Amaranthus retroflexus, 240 h, read-out: Plant response rating, Pigweed; for pest or weed control at 125 g/ha: 125 g ai/ha; for pest or weed control at 500 g/ha: 500 g ai/ha, approx. ten days
# Method in brief: as §1
# corn (Zea mays) = test: Test A pre-/postemergence plant response; conditions: Zea mays, 240 h; for Corn plant response rating (crop injury, 0 = no effect, 100 = complete kill) at 125 g/ha: 125 g ai/ha
# Method in brief: as §1
# [8] = system: cocklebur (Xanthium strumarium); test: Test B pre-/postemergence plant response; conditions: for pest or weed control at 31 g/ha: 31 g ai/ha; for pest or weed control at 125 g/ha: 125 g ai/ha
# Source text: (§2) Seeds of plant species selected from blackgrass (Alopecurus myosuroides), downy bromegrass (Bromus tectorum), green foxtail (Setaria viridis), Italian ryegrass (Lolium multiflorum), wheat (Triticum aestivum), wild oat (Avena fatua), deadnettle (henbit deadnettle, Lamium amplexicaule), galium (catchweed bedstraw, Galium aparine), bermudagrass (Cynodon dactylon), Surinam grass (Brachiaria decumbens), cocklebur (Xanthium strumarium), corn (Zea mays), large crabgrass (Digitaria sanguinalis), woolly cupgrass (Eriochloa villosa), giant foxtail (Setaria faberii), goosegrass (Eleusine indica), johnsongrass (Sorghum halepense), kochia (Kochia scoparia), lambsquarters (Chenopodium album), morningglory (Ipomoea coccinea), nightshade (eastern black nightshade, Solanum ptycanthum), yellow nutsedge (Cyperus esculentus), pigweed (Amaranthus retroflexus), ragweed (common ragweed, Ambrosia elatior), Russian thistle (Salsola kali), soybean (Glycine max), sunflower (common oilseed sunflower, Helianthus annuus) and velvetleaf (Abutilon theophrasti) were planted into a blend of loam soil and sand and treated preemergence with test compounds formulated in a non-phytotoxic solvent mixture which included a surfactant.
# (§3) At the same time, plants selected from these crop and weed species and also winter barley (Hordeum vulgare), canarygrass (Phalaris minor), chickweed (Stellaria media) and windgrass (Apera spica-venti) were planted in pots containing Redi-Earth® planting medium (Scotts Company, 14111 Scottslawn Road, Marysville, Ohio 43041) comprising spaghnum peat moss, vermiculite, wetting agent and starter nutrients and treated with postemergence applications of some of the test chemicals formulated in the same manner. Plants ranged in height from 2 to 18 cm (1- to 4-leaf stage) for postemergence treatments.
# (§4) Treated plants and controls were maintained in a greenhouse for 13 to 15 days, after which time all treated plants were visually evaluated and compared to controls. Plant response ratings, summarized in Table B, are based on a scale of 0 to 100 where 0 is no effect and 100 is complete control. A dash (-) response means no test result.
# [9] = system: green foxtail (Setaria viridis); test: Test B pre-/postemergence plant response; conditions: for pest or weed control at 31 g/ha: 31 g ai/ha; for pest or weed control at 125 g/ha: 125 g ai/ha
# Source text: as §2, §3, §4
# [10] = system: giant foxtail (Setaria faberii); test: Test B pre-/postemergence plant response; conditions: for pest or weed control at 31 g/ha: 31 g ai/ha; for pest or weed control at 125 g/ha: 125 g ai/ha
# Source text: as §2, §3, §4
# [11] = post-emergence, Postemergence, 0 to 100 scale where 0 is no effect and 100 is complete control
# [12] = post-emergence, Postemergence, 0 to 100 scale, 0 = no effect, 100 = complete control
# [13] = pre-emergence, Preemergence, 0 to 100 scale, 0 = no effect, 100 = complete control
# [14] = pre-emergence, Preemergence, visual injury, 0 to 100 scale (0 no effect, 100 complete control)
# [15] = 62 g ai/ha, postemergence, 0 is no effect, 100 is complete control, 13 to 15 days
# [16] = Preemergence, 250 g ai/ha, 0 to 100 scale
structure (smiles),measurement,setting,value
"O=C1CCCC(O)=C1C(=O)c1cnc(-c2cccnc2)n(-c2ccccc2)c1=O [Compound 113, 5-[(2-hydroxy-6-oxo-1-cyclohexen-1-yl)carbonyl]-3-phenyl-2-(3-pyridinyl)-4(3H)-pyrimidone]",pest or weed control at 125 g/ha,[1]; [11],100%
same,pest or weed control at 500 g/ha,[1]; [12],100%
same,pest or weed control at 125 g/ha,[1]; [13],70%
same,pest or weed control at 500 g/ha,[1]; [14],100%
same,pest or weed control at 125 g/ha,[2]; [11],70%
same,pest or weed control at 500 g/ha,[2]; [12],90%
same,pest or weed control at 125 g/ha,[2]; [13],10%
same,pest or weed control at 500 g/ha,[2]; [14],90%
same,plant injury at 125 g/ha,[3]; [11],0%
same,plant injury at 500 g/ha,[3]; [12],60%
same,plant injury at 125 g/ha,[3]; [13],0%
same,plant injury at 500 g/ha,[3]; [14],0%
same,pest or weed control at 125 g/ha,[4]; [11],100%
same,pest or weed control at 500 g/ha,[4]; [12],100%
same,pest or weed control at 125 g/ha,[4]; [13],30%
same,pest or weed control at 500 g/ha,[4]; [14],80%
same,pest or weed control at 125 g/ha,[5]; [11],90%
same,pest or weed control at 500 g/ha,[5]; [12],100%
same,pest or weed control at 125 g/ha,[5]; [13],70%
same,pest or weed control at 500 g/ha,[5]; [14],90%
same,pest or weed control at 125 g/ha,[6]; [11],100%
same,pest or weed control at 500 g/ha,[6]; [12],100%
same,pest or weed control at 125 g/ha,[6]; [13],100%
same,pest or weed control at 500 g/ha,[6]; [14],100%
same,pest or weed control at 125 g/ha,[7]; [11],100%
same,pest or weed control at 500 g/ha,[7]; [12],100%
same,pest or weed control at 125 g/ha,[7]; [13],100%
same,pest or weed control at 500 g/ha,[7]; [14],100%
same,"Corn plant response rating (crop injury, 0 = no effect, 100 = complete kill) at 125 g/ha",corn (Zea mays); [11],0%
same,"Corn plant response rating (crop injury, 0 = no effect, 100 = complete kill) at 500 g/ha","corn (Zea mays); post-emergence, Postemergence, 500 g ai/ha, 0 to 100 scale, 0 = no effect, 100 = complete control, approx. ten days",60%
same,"Corn plant response rating (crop injury, 0 = no effect, 100 = complete kill) at 125 g/ha",corn (Zea mays); [13],0%
same,Cocklebur plant response rating (0 to 100 scale),[8]; [15],95
same,Cocklebur plant response rating,[8]; [16],100
same,pest or weed control at 31 g/ha,"[8]; Xanthium strumarium, post-emergence, postemergence, scale 0 to 100, 0 is no effect, 100 is complete control, read-out: Plant response rating, Cocklebur",95%
same,pest or weed control at 125 g/ha,"[8]; Xanthium strumarium, post-emergence, Postemergence, scale 0 to 100 (0 no effect, 100 complete control), read-out: Plant response rating, Cocklebur",98%
same,pest or weed control at 250 g/ha,"[8]; Xanthium strumarium, post-emergence, Postemergence, 250 g ai/ha, scale 0 to 100 (0 no effect, 100 complete control), read-out: Plant response rating, Cocklebur",98%
same,pest or weed control at 31 g/ha,"[8]; Xanthium strumarium, pre-emergence, Preemergence, scale 0 to 100 (0 no effect, 100 complete control), read-out: Plant response rating, Cocklebur",45%
same,pest or weed control at 62 g/ha,"[8]; Xanthium strumarium, pre-emergence, Preemergence, 62 g ai/ha, scale 0 to 100, 0 no effect, 100 complete control, read-out: Plant response rating, Cocklebur",75%
same,pest or weed control at 125 g/ha,"[8]; Xanthium strumarium, pre-emergence, Preemergence, scale 0 to 100, 0 no effect, 100 complete control, read-out: Plant response rating, Cocklebur",90%
same,"Foxtail, Green plant response rating (0 to 100 scale)",[9]; [15],80
same,"Foxtail, Green plant response rating",[9]; [16],100
same,pest or weed control at 31 g/ha,"[9]; Setaria viridis, post-emergence, postemergence, scale 0 to 100, 0 is no effect, 100 is complete control, read-out: Plant response rating, Foxtail, Green",80%
same,pest or weed control at 125 g/ha,"[9]; Setaria viridis, post-emergence, Postemergence, scale 0 to 100 (0 no effect, 100 complete control), read-out: Plant response rating, Foxtail, Green",80%
same,pest or weed control at 250 g/ha,"[9]; Setaria viridis, post-emergence, Postemergence, 250 g ai/ha, scale 0 to 100 (0 no effect, 100 complete control), read-out: Plant response rating, Foxtail, Green",95%
same,pest or weed control at 31 g/ha,"[9]; Setaria viridis, pre-emergence, Preemergence, scale 0 to 100 (0 no effect, 100 complete control), read-out: Plant response rating, Foxtail, Green",10%
same,pest or weed control at 62 g/ha,"[9]; Setaria viridis, pre-emergence, Preemergence, 62 g ai/ha, scale 0 to 100, 0 no effect, 100 complete control, read-out: Plant response rating, Foxtail, Green",40%
same,pest or weed control at 125 g/ha,"[9]; Setaria viridis, pre-emergence, Preemergence, scale 0 to 100, 0 no effect, 100 complete control, read-out: Plant response rating, Foxtail, Green",60%
same,"Foxtail, Giant plant response rating (0 to 100 scale)",[10]; [15],85
same,"Foxtail, Giant plant response rating",[10]; [16],85
same,pest or weed control at 31 g/ha,"[10]; Setaria faberi, post-emergence, postemergence, scale 0 to 100, 0 is no effect, 100 is complete control, read-out: Plant response rating, Foxtail, Giant",80%
same,pest or weed control at 125 g/ha,"[10]; Setaria faberi, post-emergence, Postemergence, scale 0 to 100 (0 no effect, 100 complete control), read-out: Plant response rating, Foxtail, Giant",90%
same,pest or weed control at 250 g/ha,"[10]; Setaria faberi, post-emergence, Postemergence, 250 g ai/ha, scale 0 to 100 (0 no effect, 100 complete control), read-out: Plant response rating, Foxtail, Giant",95%
same,pest or weed control at 31 g/ha,"[10]; Setaria faberi, pre-emergence, Preemergence, scale 0 to 100 (0 no effect, 100 complete control), read-out: Plant response rating, Foxtail, Giant",5%
same,pest or weed control at 62 g/ha,"[10]; Setaria faberi, pre-emergence, Preemergence, 62 g ai/ha, scale 0 to 100, 0 no effect, 100 complete control, read-out: Plant response rating, Foxtail, Giant",40%
same,pest or weed control at 125 g/ha,"[10]; Setaria faberi, pre-emergence, Preemergence, scale 0 to 100, 0 no effect, 100 complete control, read-out: Plant response rating, Foxtail, Giant",60%
